Data: patent US20220152523A1, “Cannabinoid Separation by Countercurrent Chromatography” (priority 2019, published 2022)
Like-named read-outs stand apart in the source and are kept apart here.

[1] = solvent system SS 1: sec-BuOH-1% TFA/water (1:1)
[2] = solvent system SS 3: Hexane-acetone-acetonitrile (5:2:3)
[3] = solvent system SS 4: EtOAc-n-BuOH-water (2:1:3)
[4] = solvent system SS 5: EtOAc-n-BuOH-1% aq. TFA (2:1:3)
[5] = solvent system SS 6: Hexane-EtOAc-MeOH-water (6:1:6:1)
[6] = solvent system Sec-BuOH-water (1:1)

Structure (SMILES) | K, partition coefficient (ratio of upper phase to lower phase) [1] | K, partition coefficient (ratio of upper phase to lower phase) (solvent system SS 2: n-BuOH-1% aq. TFA (1:1)) | K, partition coefficient (ratio of upper phase to lower phase) [2] | K, partition coefficient (ratio of upper phase to lower phase) [3] | K, partition coefficient (ratio of upper phase to lower phase) [4] | K, partition coefficient (ratio of upper phase to lower phase) [5] | K, partition coefficient (ratio of upper phase to lower phase) [6] | K, partition coefficient (ratio of upper phase to lower phase) (solvent system n-BuOH-water (1:1))
C=C(C)[C@@H]1CCC(C)=C[C@H]1c1c(O)cc(CCCCC)cc1O [CBD, cannabidiol] | 2.7 | 8.6 | 0.99 | 4.2 | 16.5 | 0.5 | 5.5 | 
CCCCCc1cc(O)c2c(c1)OC(C)(C)[C@@H]1CCC(C)=C[C@@H]21 [THC, Δ9-Tetrahydrocannabinol] | 6.14 |  | 0.56 | 6.55 | 10.9 | 2.4 | 9.4 | 33
